The source of these data is patent publication US20120315654A1, “COMPOSITIONS AND METHODS FOR DETECTING CARDIOTOXICITY” (DUKE UNIVERSITY, priority 2011, published 2012).

Data set [1] has as its target T1, CrT (Homo sapiens, UniProt P48029).
T1 construct: swapped with the corresponding fragment from the human full-length open reading frame; expressed in transfected cells; host or cells: HL-1 murine atrial cardiomyocyte line, transient transfection with pcDNA3.1(-) human CrT cDNA
T1 sequence (P48029 1-635): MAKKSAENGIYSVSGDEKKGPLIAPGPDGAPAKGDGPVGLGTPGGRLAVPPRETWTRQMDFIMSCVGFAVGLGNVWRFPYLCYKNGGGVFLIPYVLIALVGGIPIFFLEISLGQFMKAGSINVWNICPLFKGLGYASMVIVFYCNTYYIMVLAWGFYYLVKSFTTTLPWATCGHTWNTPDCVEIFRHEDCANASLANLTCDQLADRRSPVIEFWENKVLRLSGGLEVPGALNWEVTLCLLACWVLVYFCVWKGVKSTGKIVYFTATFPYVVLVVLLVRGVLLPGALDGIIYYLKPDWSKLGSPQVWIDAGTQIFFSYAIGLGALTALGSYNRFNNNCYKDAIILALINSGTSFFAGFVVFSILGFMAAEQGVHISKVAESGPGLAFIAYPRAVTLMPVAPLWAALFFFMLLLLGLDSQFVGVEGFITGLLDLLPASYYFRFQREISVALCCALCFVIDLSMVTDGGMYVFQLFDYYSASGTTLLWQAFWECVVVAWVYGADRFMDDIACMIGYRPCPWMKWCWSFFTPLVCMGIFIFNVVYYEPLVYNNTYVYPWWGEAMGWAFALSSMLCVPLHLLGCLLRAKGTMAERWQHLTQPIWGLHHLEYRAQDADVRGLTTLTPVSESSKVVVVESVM
The data set can be described thus: 14C-Cr transport in HL-1 cells expressing the human CrT protein (dose-response, time course, kinetics). As to conditions: HL-1 cells expressing human CrT, Michaelis-Menten, no DOX. It counts as cell-based. The protocol: The cultures were maintained in a humidified atmosphere of 5% CO2 at 37° C.
(§1) Cells used for Cr transport assays were cultured in 24-well plates coated with fibronectin and gelatin. The wells were washed twice with room temperature choline buffer (150 mmol/L choline chloride; 1 mmol/L CaCl2; 5 mmol/L MgCl2; 2 mmol/L KCl; and 5 mmol/L HEPES-Tris, pH 7.5).
(§2) The cells were lysed with 500 mmol/L NaOH and heated to 80° C. for 30 min. 100 μl of cell lysate was subjected to scintillation counting using a BECKMAN COULTER LS 6500 scintillation counter. Cr transport was normalized to the protein concentration measured using the bicinchoninic acid (BCA) protein assay (PIERCE BIOTECHNOLOGY, Rockford, Ill.).

For a further data set, the target named is T2, Cr transport (Homo sapiens, UniProt P48029).
T2 sequence (P48029 1-635): T1 sequence (P48029 1-635)
The note with it: Dai W. et al., 1999; read-out: IC50 for inhibition of Cr transport; cited from earlier work.

Data set [2] has as its target T1, CrT. Put plainly: DOX competition assay: 14C-Cr uptake in the presence of DOX and/or B-GPA. It counts as cell-based. As to conditions: acute exposure during uptake; 2 μmol/L DOX, 100 μmol/L B-GPA; control = 1.00. Here is the method: as §1, §2
Substrate in data set [3]: CN(CC(=O)O)C(=N)N
Put plainly: 14C-Cr transport in HL-1 cells expressing the human CrT protein (dose-response, time course, kinetics). It counts as cell-based. As to conditions: other: HL-1 cells expressing human CrT, Michaelis-Menten, no DOX; pH 7.5.

`CN(CC(=O)O)C(=N)N` [Cr, Creatine]: at CrT [1], the “Cr transport Vmax” value is recorded as 42.9±5.24 nmol/mg protein. The IC50 is the point on the concentration scale where inhibition reaches its midpoint. In the case of `NC(N)=NCCC(=O)O` [β-GPA], the IC50 on Cr transport was 50 µM. On CrT [2], the “Relative Vmax ± SEM” value was determined as 0.43 ± 0.11.

B1: human CrT (Homo sapiens) (protein)
chain: T1 sequence (P48029 1-635)
notes: swapped with the corresponding fragment from the human full-length open reading frame; expressed in transfected cells; host or cells: HL-1 murine atrial cardiomyocyte line, transient transfection with pcDNA3.1(-) human CrT cDNA
For orientation: Km means the concentration of substrate that gives half-maximal velocity. For B1, the Km in data set [3] was found to be 63.5 ± 2.37 µM.
